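Following 48 hours of exposure in 96-well plates, responses at five concentrations were used to interpolate endpoints linearly. TGI is the concentration that stops growth completely.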
How the values were obtained:
Experiment in all cases: DTP human tumour cell line panel, 48 h
[1] = test system: UO-31 renal
[2] = test system: U251 CNS
[3] = test system: HCT-15 colon
[4] = test system: IGROV1 ovarian
[5] = test system: HS 578T breast
[6] = test system: MDA-MB-231 breast
[7] = test system: SNB-19 CNS
[8] = test system: NCI-H460 lung
[9] = test system: MOLT-4 leukemia
[10] = test system: SW-620 colon
[11] = test system: K-562 leukemia
[12] = test system: SK-OV-3 ovarian
[13] = test system: HOP-62 NSCLC
[14] = test system: M14 melanoma
[15] = test system: SK-MEL-2 melanoma
[16] = test system: OVCAR-5 ovarian
[17] = test system: HT29 colon
[18] = test system: UACC-62 melanoma
[19] = test system: DU-145 prostate
[20] = test system: LOX IMVI melanoma

SMILES | TGI [1] [µM] | TGI [2] [µM] | TGI [3] [µM] | TGI [4] [µM] | TGI [5] [µM] | TGI [6] [µM] | TGI [7] [µM] | TGI [8] [µM] | TGI [9] [µM] | TGI [10] [µM] | TGI [11] [µM] | TGI [12] [µM] | TGI [13] [µM] | TGI [14] [µM] | TGI [15] [µM] | TGI [16] [µM] | TGI [17] [µM] | TGI [18] [µM] | TGI [19] [µM] | TGI [20] [µM]
CC(=NNC(=S)Nc1cccc(C)c1)c1cccc(C(C)=NNC(=S)Nc2cccc(C)c2)n1 | 86.3 | 93.3 | > 100 | 46.7 | > 100 | 59.9 | > 100 | > 100 | 61.6 | 70.5 | > 100 | > 100 | > 100 | 39.3 | 74 | > 100 | > 100 | > 100 | > 100 | 85.3
CCSc1cc2c(cc1O)CC[C@@H]1[C@@H]2CC[C@]2(C)[C@@H](O)CC[C@@H]12 | 30.1 | 25.2 | 23.2 | 25 | 17.9 | 18.8 | 25.5 | 19.2 | 21.2 | 13.2 | 21 | 39.2 | 30.6 | – | 37.7 | 51.2 | 23 | 27.7 | 74.9 | 23
O=C(SC1=NCCN1)c1cccc2ccccc12 | > 100 | > 100 | > 100 | > 100 | > 100 | > 100 | > 100 | > 100 | 43.2 | > 100 | 73.5 | > 100 | > 100 | > 100 | > 100 | > 100 | > 100 | > 100 | > 100 | > 100
COC(=O)c1ccccc1NC(=NC1CCCCCC1)NS(=O)(=O)c1ccc(C)cc1 | > 100 | > 100 | > 100 | > 100 | > 100 | > 100 | > 100 | > 100 | > 100 | > 100 | > 100 | > 100 | > 100 | > 100 | > 100 | > 100 | > 100 | > 100 | > 100 | > 100
O=C1/C(=C/c2ccco2)N=C2Sc3c(nc[nH]c3=O)N12 | > 100 | > 100 | > 100 | > 100 | > 100 | > 100 | > 100 | – | > 100 | > 100 | > 100 | > 100 | > 100 | > 100 | > 100 | > 100 | > 100 | – | > 100 | > 100
N#Cc1cc([N+](=O)[O-])ccc1NC(=O)/C(=N\NC(=O)c1ccncc1)C(c1cnc2ccc([N+](=O)[O-])cc2n1)[N+](=O)[O-] (centres undefined) | 7.6 | 6.63 | 5.22 | 14.2 | 6.23 | 5.36 | 8.16 | 8.17 | 22.9 | 5.5 | 6.4 | 20 | 6.8 | 3.23 | 3.73 | 22.4 | 41.8 | 2.96 | 11.8 | 2.23
O=C1C=CC(=O)c2c1ccc1c3ccccc3n(-c3ccccc3)c21 | 25.5 | 43.7 | 10.7 | 34.5 | 60.5 | 15.9 | 43.7 | 34.6 | 2.89 | 7.31 | 5.08 | 39.3 | 37.7 | 21.2 | 26.6 | 31.7 | 37 | 26.2 | 37.2 | 20.1
O=C(OCc1ccc([N+](=O)[O-])cc1)N1c2ccccc2[C@@]23O[C@]24CCC[C@H]3C#C/C=C\C#C[C@H]14 | > 100 | > 100 | > 100 | > 100 | > 100 | > 100 | > 100 | > 100 | > 100 | > 100 | > 100 | > 100 | – | > 100 | > 100 | > 100 | > 100 | > 100 | > 100 | > 100
CN(C)CCCNC(=O)CCNC(=O)c1cc(NC(=O)c2cc(NC(=O)c3cc(NC(=O)c4nccn4C)cn3C)cn2C)cn1C | > 100 | > 100 | > 100 | > 100 | > 100 | > 100 | > 100 | > 100 | > 100 | > 100 | > 100 | > 100 | > 100 | > 100 | > 100 | > 100 | > 100 | > 100 | > 100 | > 100
CCOC(=O)c1cc2c3c(c(C(C)=O)c(O)c2[nH]1)N(C(C)=O)CC3 | > 100 | > 100 | > 100 | > 100 | > 100 | > 100 | > 100 | > 100 | > 100 | > 100 | > 100 | > 100 | > 100 | > 100 | > 100 | > 100 | > 100 | > 100 | > 100 | > 100
C=C1CCCC(C)(C)C1CCC1(C)CCC(C(C)C(=O)OC)OO1 (centres undefined) | 1.91 | 7.21 | > 25 | 1.7 | 13.8 | > 25 | > 18.1 | 3.77 | > 25 | 24.2 | > 25 | 9.43 | 4.7 | > 25 | > 25 | > 23.1 | > 25 | > 15.5 | 8.63 | 0.902
CC1CC/C(=C\c2ccc(N(C)C)cc2)C2=C1C(c1ccc(N(C)C)cc1)NC(=S)N2 (centres undefined) | > 100 | > 100 | > 100 | > 100 | > 100 | > 100 | > 100 | – | > 100 | > 100 | > 100 | > 100 | – | > 100 | > 100 | > 100 | > 100 | > 100 | > 100 | > 100
